According to article PMC10057066, “Unraveling the Aquaporin-3 Inhibitory Effect of Rottlerin by Experimental and Computational Approaches” (International Journal of Molecular Sciences, 2023):

Biological target: T1, aquaporin-3 (AQP3) (Homo sapiens, UniProt Q92482)
T1 construct: human AQP3 C-terminally GFP-tagged, expressed in aqy-null S. cerevisiae; endogenous AQP3 in human red blood cells
T1 sequence (Q92482 1-292): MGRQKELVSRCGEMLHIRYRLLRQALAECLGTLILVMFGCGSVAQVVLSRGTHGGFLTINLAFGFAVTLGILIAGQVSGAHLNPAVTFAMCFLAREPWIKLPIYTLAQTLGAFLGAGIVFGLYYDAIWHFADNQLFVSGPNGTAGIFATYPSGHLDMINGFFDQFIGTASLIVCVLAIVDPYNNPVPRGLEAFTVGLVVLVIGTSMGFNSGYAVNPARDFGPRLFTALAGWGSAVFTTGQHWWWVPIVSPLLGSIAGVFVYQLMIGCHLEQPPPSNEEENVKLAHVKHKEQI
Experiment: stopped-flow glycerol permeability in hRBCs (IC50), confirmed in hAQP3-expressing yeast ([…] inhibition at […])
Format: cell-based

## CC(=O)c1c(O)c(C)c(O)c(Cc2c(O)c3c(c(C(=O)/C=C/c4ccccc4)c2O)OC(C)(C)C=C3)c1O [RoT, Rottlerin]
  IC50: 6.7 ± 2.97 µM
